Several values for one entry are separate records, joined by “and”; a condition that tells them apart may be missing. Equal values may be shown once. Where a SMILES comes first, the peptide text is derived from it. Where no end group is shown, it is not given here.
Legend:
[1] = target: extrinsic activation complex (factor VIIa:tissue factor) (Homo sapiens, UniProt P08709+P13726); test: Rate of Factor Xa formation by the extrinsic activation complex, kinetic chromogenic assay; assay type: biochemical; conditions: for Factor Xa Formation (% of Control Rate) Extrinsic: 1 mg/ml (0.29-1.1 mM) peptide, 30 min at 37 degrees preincubation
[2] = target: T1, Factor Xa:Factor Va complex (Homo sapiens, UniProt P12259); test: Rate of thrombin formation (prothrombin activation by Factor Xa), chromogenic assay; assay type: biochemical; conditions: for Thrombin Formation (% of Control Rate): 200 μM final concentration of peptide
T1 sequence (P12259 29-737 limits assumed): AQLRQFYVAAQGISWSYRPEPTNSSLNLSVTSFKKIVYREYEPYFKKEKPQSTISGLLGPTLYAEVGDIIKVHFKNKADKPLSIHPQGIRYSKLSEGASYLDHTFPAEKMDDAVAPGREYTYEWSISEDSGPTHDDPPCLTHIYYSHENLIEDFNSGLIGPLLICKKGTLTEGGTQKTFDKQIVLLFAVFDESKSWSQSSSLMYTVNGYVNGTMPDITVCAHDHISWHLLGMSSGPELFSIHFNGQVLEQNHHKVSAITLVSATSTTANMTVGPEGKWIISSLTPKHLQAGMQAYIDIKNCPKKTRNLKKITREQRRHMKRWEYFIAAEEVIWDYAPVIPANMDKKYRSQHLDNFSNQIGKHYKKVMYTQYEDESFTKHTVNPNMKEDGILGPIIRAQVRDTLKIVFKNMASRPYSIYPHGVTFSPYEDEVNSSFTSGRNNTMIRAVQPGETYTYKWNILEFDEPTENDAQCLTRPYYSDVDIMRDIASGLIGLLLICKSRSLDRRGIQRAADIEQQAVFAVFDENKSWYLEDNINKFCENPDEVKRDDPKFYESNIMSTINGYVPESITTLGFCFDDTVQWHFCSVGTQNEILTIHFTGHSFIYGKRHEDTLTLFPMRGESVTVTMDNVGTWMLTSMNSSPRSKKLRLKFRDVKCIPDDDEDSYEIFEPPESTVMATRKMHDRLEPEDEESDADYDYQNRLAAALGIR
T1 sequence (P12259 1574-2224 limits assumed): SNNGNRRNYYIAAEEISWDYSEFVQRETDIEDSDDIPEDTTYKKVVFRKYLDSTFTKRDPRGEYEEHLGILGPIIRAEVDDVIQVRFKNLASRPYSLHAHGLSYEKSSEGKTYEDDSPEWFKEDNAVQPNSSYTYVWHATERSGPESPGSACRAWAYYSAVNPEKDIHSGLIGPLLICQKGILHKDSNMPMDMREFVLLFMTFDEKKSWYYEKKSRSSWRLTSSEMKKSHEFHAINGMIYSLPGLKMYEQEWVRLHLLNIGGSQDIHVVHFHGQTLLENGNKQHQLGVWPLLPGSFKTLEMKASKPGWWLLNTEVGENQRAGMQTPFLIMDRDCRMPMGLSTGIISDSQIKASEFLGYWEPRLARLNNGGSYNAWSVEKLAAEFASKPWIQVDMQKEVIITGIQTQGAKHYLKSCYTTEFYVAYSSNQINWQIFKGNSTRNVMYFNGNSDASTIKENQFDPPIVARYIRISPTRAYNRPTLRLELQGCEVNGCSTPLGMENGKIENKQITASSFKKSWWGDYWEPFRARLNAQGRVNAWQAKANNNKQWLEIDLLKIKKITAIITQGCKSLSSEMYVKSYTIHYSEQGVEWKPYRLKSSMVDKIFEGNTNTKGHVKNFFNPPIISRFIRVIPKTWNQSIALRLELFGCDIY
Description: b. Rate of Thrombin Formation: The ability of the synthetic peptides to inhibit Factor Xa function was assessed by their capacity to impede the rate of thrombin formation using a purified system and employing a specific thrombin chromogenic substrate. To 10 ul of Factor V (1.5 nM) was added 10 ul of phospholipid vesicles (30 uM), 3.3 ul of CaCl2 (100 mM) and 57 ul of TBS-BSA or synthetic peptide. The mixture was incubated at 37 degrees Centigrade for 15 minutes, after which 20 ul of Factor Xa (12 pM) and prothrombin (0.35 uM) were added to initiate the reaction.
At defined time intervals from initiation of either reaction (a) or (b), 20 ul aliquots were removed and added to a microtiter plate containing 80 ul of 50 mM Tris-HCl, 225 mM NaCl, 10 mM EDTA, pH 8.2. […] The rate of Factor Xa or thrombin formation was calculated from the slope of linear regressions of data plotted as a function of the initial rate of hydrolysis (OD 405/min) versus time and expressed as OD 405/min/min.
Factor Xa associates with activated Factor Va on a phospholipid surface in the presence of calcium. A chromogenic assay was used to investigate the ability of the panel of synthetic peptides to inhibit the activation of prothrombin by Factor Xa. In preliminary experiments it was determined that similar results were obtained whether prothrombin was added before or after factor Xa and that the 15 minute incubation period was sufficient for the peptide-protein interactions to reach equilibrium. […] Seven peptides prevented thrombin formation by greater than 40% when compared to reactions containing buffer only. These peptides represented the amino acid sequences 211-222, 237-262, 254-269, 267-283, 284-303, 363-375, 417-431. Thus, a limited number of synthetic peptides representing the primary structure of Factor Xa could inhibit this reaction and these were analyzed further.

[3] = target: T2, intrinsic activation complex (factor IXa:factor VIIIa) (Homo sapiens, UniProt P00451+P00740); test: Rate of Factor Xa formation by the intrinsic activation complex, kinetic chromogenic assay; assay type: biochemical; conditions: for Factor Xa Formation (% of Control Rate) Intrinsic: 1 mg/ml (0.29-1.1 mM) peptide, 30 min at 37 degrees preincubation
T2 construct: Factor IXa was produced from contact product (14) and isolated as previously described (12); made in house; host or cells: Factor IXa produced from isolated Factor IX with contact product; Factor VIII was a gift from Rorer Biotechnology, Inc

RVV-X = RVV-X (Daboia siamensis, UniProt Q4PRD1+Q4PRD2+Q7LZ61); test: biochemical; parameters: species or system Russell's viper
[4] = system: Factor X coagulant activity, RVV-X pathway; test: Two-stage clotting assay, RVV-X mediated activation of Factor X; parameters: species or system human
[5] = system: Factor X coagulant activity, extrinsic pathway; test: Two-stage clotting assay, extrinsic activation of Factor X
Description: (§1) Coagulation Assays: The effect of the synthetic peptide and antibodies to them on Factor X coagulation activity was determined using two-stage clotting assays specific for Factor X activation by the intrinsic, extrinsic, and RVV-X activation enzyme complexes.
(§2) For determination of extrinsic activation of Factor X, 50 ul of bovine Factor VII/X deficient plasma was added 50 ul each of 1.5 nM Factor VII/VIIa, 1% tissue factor, 25 mM CaCl2, and peptide in TBS-BSA. Following incubation for 30 min at 37 degrees Centigrade, coagulation was initiated by the addition of 50 ul of 200 nM of Factor X, and the time for clot formation was measured. […] Factor X (50 ul of 105 nM) was added to initiate the reaction and the time for clot formation measured. […] Factor X and Xa activity was measured by the addition of 50 ul of 25 nM Factor X and the time for clot formation determined. […]
(§3) Analogous determinations of the CI50 values were measured in each of the specific coagulation assays outlined above. Factor X/Xa activity in the presence of varying concentrations of peptide was measured by comparing the clotting times to a standard curve constructed from the log of the clot time versus the log of Factor X concentration in the same incubation mixtures lacking peptides. […]

[6] = system: Factor X coagulant activity, intrinsic pathway; test: Two-stage clotting assay, intrinsic activation of Factor X
Description: as §1, §2, §3

[7] = 267-283 at 6 uM, 284-303 at 60 uM, 417-431 at 600 uM, alone or mixed

T2 sequence (P00740 47-191 limits assumed): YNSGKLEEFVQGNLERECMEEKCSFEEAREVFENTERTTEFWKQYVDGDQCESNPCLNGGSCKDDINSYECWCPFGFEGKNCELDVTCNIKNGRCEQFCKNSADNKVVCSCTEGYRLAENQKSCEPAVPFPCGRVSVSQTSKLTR
T2 sequence (P00740 227-461 limits assumed): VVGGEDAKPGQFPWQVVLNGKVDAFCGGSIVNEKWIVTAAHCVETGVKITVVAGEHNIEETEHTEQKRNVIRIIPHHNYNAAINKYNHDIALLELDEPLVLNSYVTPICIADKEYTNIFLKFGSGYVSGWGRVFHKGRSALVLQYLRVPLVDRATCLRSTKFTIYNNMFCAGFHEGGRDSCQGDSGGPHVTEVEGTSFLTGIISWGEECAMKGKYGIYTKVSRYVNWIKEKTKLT
T2 sequence (P00451 20-391 limits assumed): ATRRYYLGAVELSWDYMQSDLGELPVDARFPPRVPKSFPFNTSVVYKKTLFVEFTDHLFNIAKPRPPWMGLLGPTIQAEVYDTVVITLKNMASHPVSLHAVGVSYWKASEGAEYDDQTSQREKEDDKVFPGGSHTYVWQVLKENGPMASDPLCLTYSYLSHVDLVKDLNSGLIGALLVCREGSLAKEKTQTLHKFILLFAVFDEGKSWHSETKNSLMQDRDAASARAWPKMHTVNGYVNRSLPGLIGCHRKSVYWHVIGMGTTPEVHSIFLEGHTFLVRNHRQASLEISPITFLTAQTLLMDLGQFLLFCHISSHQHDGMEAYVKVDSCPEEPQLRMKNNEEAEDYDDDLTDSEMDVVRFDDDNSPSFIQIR
T2 sequence (P00451 392-759 limits assumed): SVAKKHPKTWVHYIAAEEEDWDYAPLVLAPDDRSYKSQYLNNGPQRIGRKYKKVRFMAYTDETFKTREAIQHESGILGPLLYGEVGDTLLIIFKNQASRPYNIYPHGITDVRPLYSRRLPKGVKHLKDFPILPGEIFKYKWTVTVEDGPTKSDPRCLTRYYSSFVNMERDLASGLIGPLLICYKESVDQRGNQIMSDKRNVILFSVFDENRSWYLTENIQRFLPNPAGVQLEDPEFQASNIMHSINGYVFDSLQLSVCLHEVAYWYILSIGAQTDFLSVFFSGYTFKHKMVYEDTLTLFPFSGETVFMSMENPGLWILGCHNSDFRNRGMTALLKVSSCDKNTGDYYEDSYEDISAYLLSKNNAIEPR
T2 sequence (P00451 1709-2351 limits assumed): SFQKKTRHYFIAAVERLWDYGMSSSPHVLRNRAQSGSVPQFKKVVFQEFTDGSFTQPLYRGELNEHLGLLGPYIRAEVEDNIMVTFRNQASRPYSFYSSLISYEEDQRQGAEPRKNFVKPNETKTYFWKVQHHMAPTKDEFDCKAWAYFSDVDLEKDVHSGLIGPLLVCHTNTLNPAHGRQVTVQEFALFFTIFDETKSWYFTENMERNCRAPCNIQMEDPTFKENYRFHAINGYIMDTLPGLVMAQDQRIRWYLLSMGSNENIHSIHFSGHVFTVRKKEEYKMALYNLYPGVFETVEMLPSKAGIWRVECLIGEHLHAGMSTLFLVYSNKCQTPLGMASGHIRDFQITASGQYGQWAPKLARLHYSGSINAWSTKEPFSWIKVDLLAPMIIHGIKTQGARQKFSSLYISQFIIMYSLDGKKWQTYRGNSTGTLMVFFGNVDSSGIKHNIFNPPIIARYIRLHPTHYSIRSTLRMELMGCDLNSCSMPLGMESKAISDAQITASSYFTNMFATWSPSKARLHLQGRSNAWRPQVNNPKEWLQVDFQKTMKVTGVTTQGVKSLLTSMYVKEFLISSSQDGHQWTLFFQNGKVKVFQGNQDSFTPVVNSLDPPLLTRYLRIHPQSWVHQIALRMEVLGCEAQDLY
Sequence of extrinsic activation complex (factor VIIa:tissue factor) (P08709 61-212 limits assumed): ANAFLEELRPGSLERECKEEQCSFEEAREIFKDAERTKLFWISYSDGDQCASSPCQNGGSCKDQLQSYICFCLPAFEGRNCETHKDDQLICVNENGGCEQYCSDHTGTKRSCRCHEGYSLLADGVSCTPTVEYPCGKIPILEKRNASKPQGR
Sequence of extrinsic activation complex (factor VIIa:tissue factor) (P08709 213-466 limits assumed): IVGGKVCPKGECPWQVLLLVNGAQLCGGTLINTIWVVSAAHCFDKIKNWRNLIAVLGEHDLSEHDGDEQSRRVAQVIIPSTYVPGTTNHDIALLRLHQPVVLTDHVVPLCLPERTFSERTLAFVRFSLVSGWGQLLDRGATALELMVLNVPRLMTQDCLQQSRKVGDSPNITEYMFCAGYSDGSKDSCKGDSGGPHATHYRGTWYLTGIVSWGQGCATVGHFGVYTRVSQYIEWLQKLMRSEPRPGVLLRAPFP
Sequence of extrinsic activation complex (factor VIIa:tissue factor) (P13726 33-295): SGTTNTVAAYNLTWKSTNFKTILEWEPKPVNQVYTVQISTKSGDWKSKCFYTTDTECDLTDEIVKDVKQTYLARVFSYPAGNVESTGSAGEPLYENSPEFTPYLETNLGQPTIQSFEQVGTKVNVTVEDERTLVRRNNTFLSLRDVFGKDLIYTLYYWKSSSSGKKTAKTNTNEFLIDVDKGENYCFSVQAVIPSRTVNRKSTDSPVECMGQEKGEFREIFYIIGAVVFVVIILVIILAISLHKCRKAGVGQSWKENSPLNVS

VVIKHNRFTKETYDFDI [Peptide 267-283]
inhibition at 400 µM ([1]; 400 uM peptide, Factor X 5.25-84 nM (FIG. 1), read-out: inhibition of the rate and extent of Factor X activation by the extrinsic activation complex): ≥ 90%

C[C@H](NC(=O)[C@H](CC(=O)O)NC(=O)[C@H](CCC(=O)O)NC(=O)[C@H](CCC(N)=O)NC(=O)[C@H](CCCCN)NC(=O)[C@@H](NC(=O)[C@H](CC(=O)O)NC(=O)[C@H](Cc1ccc(O)cc1)NC(=O)CNC(=O)[C@H](C)NC(=O)[C@H](CS)NC(=O)[C@@H](N)Cc1ccccc1)[C@@H](C)O)C(=O)N[C@@H](CS)C(=O)O [Peptide 363-375] (H-FCAGYDTKQEDAC-OH; N-terminus and C-terminus assumed)
mode of inhibition of prothrombin activation ([2]; Dixon plots, varying prothrombin): noncompetitive

CARGYTLADNGKAC [Peptide 111-124]
Factor Xa Formation (% of Control Rate) Extrinsic [1]: 83 % of Control Rate
Factor Xa Formation (% of Control Rate) Intrinsic [3]: 121 % of Control Rate
Factor Xa Formation (% of Control Rate) RVVX (RVV-X): 77
Thrombin Formation (% of Control Rate) [2]: 100 % of Control Rate

AVLRLKTPITFRMNVAPACL [Peptide 284-303]
Factor Xa Formation (% of Control Rate) Extrinsic [1]: 19 % of Control Rate
Factor X Activation (% Control) Experiment #1 Observed [1, 7]: 35.0 % Control
Factor X Activation (% Control) Experiment #2 Observed [1, 7]: 47.8 % Control
Ki ([1]; Dixon plots, mean ± SD for 4 to 5 determinations, read-out: Ki for Factor X Activation, Extrinsic): 73.6 ± 7.79 µM
IC50 ([1]; chromogenic assay, read-out: Concentration for 50% Inhibition, Rate of Factor Xa Formation, Extrinsic): 78 µM
Factor Xa Formation (% of Control Rate) Intrinsic [3]: 0 % of Control Rate
Ki ([3]; Dixon plots, mean ± SD for 4 to 5 determinations, read-out: Ki for Factor X Activation, Intrinsic): 3.05 ± 1.77 µM
IC50 ([3]; chromogenic assay, read-out: Concentration for 50% Inhibition, Rate of Factor Xa Formation, Intrinsic): 1700 nM and < 5000 nM
Factor Xa Formation (% of Control Rate) RVVX (RVV-X): 34
IC50 (RVV-X; read-out: Concentration for 50% Inhibition, Rate of Factor Xa Formation, RVV.X): 104 µM
Ki (RVV-X; read-out: Ki for Factor X Activation, RVV-X): 123 ± 23.9 µM
Thrombin Formation (% of Control Rate) [2]: 0 % of Control Rate
prevention of thrombin formation compared to buffer only ([2]; 200 uM of each peptide): greater than 40%
Ki ([2]; assays varying the substrate prothrombin, read-out: Ki for Factor Xa Function): 16.2 ± 4.54 µM
inhibition of RVV-X pathway Factor X coagulant activity ([4]; clot formation assay): inhibited
IC50 ([4]; clotting assay, read-out: Concentration for 50% Inhibition, Coagulant Activity, RVV.X): 14 µM
inhibition of extrinsic pathway-mediated Factor X coagulant activity ([5]; clot formation assay): less potent inhibitor
IC50 ([5]; read-out: Concentration for 50% Inhibition, Coagulant Activity, Extrinsic, clotting assay): > 500 µM
inhibition of intrinsic pathway Factor X coagulant activity ([6]; clot formation assay): inhibited
IC50 ([6]; read-out: Concentration for 50% Inhibition, Coagulant Activity, Intrinsic, clotting assay): 46 µM

LYQAKRF *EGDRNTEQEEGG(K) [Peptide 238-259 + K]
Factor Xa Formation (% of Control Rate) Extrinsic [1]: 100 % of Control Rate
Factor Xa Formation (% of Control Rate) Intrinsic [3]: 71 % of Control Rate
Factor Xa Formation (% of Control Rate) RVVX (RVV-X): 100
Thrombin Formation (% of Control Rate) [2]: 98 % of Control Rate

TEQE*GGEAVHEVEVVIK [Peptide 253-270]
inhibition of the rate and extent of Factor X activation by the extrinsic activation complex ([1]; 400 uM peptide, Factor X 5.25-84 nM (FIG. 1)): approximately 20%
Factor Xa Formation (% of Control Rate) Extrinsic [1]: 100 % of Control Rate
Factor Xa Formation (% of Control Rate) RVVX (RVV-X): 71

IVGGQECKDGECPWQA(K) (C-terminal added Lys) [Peptide 195-210 + K]
Factor Xa Formation (% of Control Rate) Extrinsic [1]: 88 % of Control Rate
Factor Xa Formation (% of Control Rate) Intrinsic [3]: 98 % of Control Rate
Factor Xa Formation (% of Control Rate) RVVX (RVV-X): 76
Thrombin Formation (% of Control Rate) [2]: 99 % of Control Rate

Reference: patent US5187155A, “Anticoagulant peptides” (Board of Regents, The University of Texas System, priority 1989, dated 1993)
